# According to patent publication US20240108738A1, “BICYCLIC PEPTIDE LIGANDS SPECIFIC FOR NK CELLS” (Bicycle Tx Limited, priority 2021, published 2024):
# Numbered stars: 1 amine (or outer) side, 2 acyl side, 3 side chain; on linkers, the order of the positions; unused ones are H or OH. Bridge positions count the residues as written; N and C are the ends. Square brackets hold non-standard residues; d marks the D form. Peptide text beside a SMILES is read from it. TATA = O=C(CC[*:1])N1CN(C(=O)CC[*:2])CN(C(=O)CC[*:3])C1; dCha = N[C@H](CC1CCCCC1)C(=O)O; Cba = N[C@@H](CC1CCC1)C(=O)O; Pen = CC(C)(S)[C@H](N)C(=O)O
# Biological target: T1, Fc-tagged human NKp46 (Homo sapiens, UniProt O76036)
# T1 construct: purchased ACROBiosystems NC1-H5257
# T1 sequence (O76036 22-304): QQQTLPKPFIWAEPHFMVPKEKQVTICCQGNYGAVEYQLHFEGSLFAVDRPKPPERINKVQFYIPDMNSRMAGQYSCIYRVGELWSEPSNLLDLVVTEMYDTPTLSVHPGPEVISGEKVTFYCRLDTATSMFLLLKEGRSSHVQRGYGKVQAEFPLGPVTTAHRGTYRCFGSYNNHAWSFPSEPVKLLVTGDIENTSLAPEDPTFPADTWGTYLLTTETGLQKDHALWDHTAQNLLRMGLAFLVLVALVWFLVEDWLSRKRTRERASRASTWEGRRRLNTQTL
# Assay: NKp46 SPR assay (Method 1 and/or Method 2)
# Type: binding
# Settings: SPR Method 1 and/or Method 2, Table 3B
# Description: SPR experiments were performed to determine ka (M^−1s^−1), kd (s^−1), KD (nM) values (where measurable) of various bicyclic peptides to immobilised NKp46.
# For analysis of peptide binding to NKp46, a Biacore 3000 instrument was used with a Cytiva Streptavidin chip. Capture of the protein (recombinant human NKp46-Fc fusion biotinylated via Avi-tag) was carried out at 25° C. with HBS-N (10 mM HEPES, 0.15 M NaCl, pH 7.4) as the running buffer and biotinylated NKp46 was captured to a level of 400-800 RU using a dilution of protein to 0.2 μM in buffer. Buffer was then changed to PBS/0.05% Tween 20 and a dilution series of the peptides was prepared in this buffer with a final DMSO concentration of 0.5% with a top peptide concentration of 100 nM-5000 nM and 6 further 2 or 3-fold dilutions. The SPR analysis was run at 25° C. and a flow rate of 50 μl/min with 60 seconds association and 200-400 seconds dissociation time. Data were corrected for DMSO excluded volume effects. All data were double-referenced for blank injections and reference surface using standard processing procedures and data processing and kinetic fitting were performed using Scrubber software, version 2.0c (BioLogic Software). Data were fitted using simple 1:1 binding model allowing for mass transport effects where appropriate.
# Peptides were tested against Fc-tagged human NKp46 (ACROBiosystems, cat no. NC1-H5257).
# For analysis of peptide binding, a Biacore 8k+ instrument was used with a CM5 chip (Cytiva). All experiments were carried out at 25° C. Anti-human IgG (Fc) antibody (Cytiva) was immobilized on all flow cells by standard amine coupling chemistry. The running buffer was HBS-N(Cytiva, 10 mM HEPES, 0.15 M NaCl, pH 7.4) and the flow rate was 10 μL/min. The carboxymethyl dextran surface was activated with a 1:1 ratio of 0.4 M 1-ethyl-3-(3-dimethylaminopropyl) carbodiimide hydrochloride (EDC)/0.1 M N-hydroxy succinimide (NHS) (Cytiva) for 420s. […] Residual activated groups were blocked with a 420 s injection of 1 M ethanolamine (pH 8.5). The final surface density was 3000-5000 RU. Fc-tagged human NKp46 was diluted to 0.1 μM in HBS-N and was captured on flow cell 2 only of the sensor chip at a flow rate of 10 μL/min to 500-1000 RU. The buffer was then changed to PBS-P+(Cytiva) supplemented with 2% DMSO. […] The flow rate was 50 μL/min with 60 s association and 400 s dissociation. Data were corrected for DMSO volume exclusion effects. All data were double-referenced against blank injections and reference surface response using standard processing procedures. Data processing and kinetic fitting was performed using Biacore Insight Evaluation Software with Extended Screening and Characterization Extension (Cytiva). Data were fitted using steady state affinity 1:1 binding model to determine KD. Data were fitted using kinetic 1:1 binding model to determine kinetic constants where appropriate.
row,Kd [nM],SMILES
1,2670,"CC[C@H](C)[C@@H]1NC(=O)[C@H]([C@@H](C)CC)NC(=O)[C@@H]2CCCN2C(=O)[C@H](Cc2c[nH]cn2)NC(=O)[C@H]([C@@H](C)O)NC(=O)[C@H](CC(N)=O)NC(=O)[C@@H]2CCCN2C(=O)[C@@H]2CSCCC(=O)N3CN(CN(C3)C(=O)CCSC[C@@H](C(=O)N[C@@H](C)C(N)=O)NC1=O)C(=O)CCSC[C@H](NC(=O)[C@H](C)N)C(=O)N[C@@H](CC(C)C)C(=O)N[C@@H](CC(C)C)C(=O)N[C@@H](Cc1c[nH]cn1)C(=O)N[C@@H](CC(=O)O)C(=O)N[C@@H](Cc1c[nH]cn1)C(=O)N2 [BCY15106, A-(SEQ ID NO: 8)-A] (H-ACLLHDHCPNTHPIICA-NH2; linker 2-8-16 via TATA)"
2,> 500,"CC(=O)N[C@H]1CSCCC(=O)N2CN3CN(C2)C(=O)CCSC(C)(C)[C@@H](C(N)=O)NC(=O)[C@H](Cc2ccc(O)cc2)NC(=O)[C@H](CCC(=O)O)NC(=O)[C@H](CC(=O)O)NC(=O)[C@@H](C)NC(=O)[C@H](CSCCC3=O)NC(=O)[C@H](CC(C)C)NC(=O)[C@H](Cc2ccc(O)cc2)NC(=O)[C@H](CC(=O)O)NC(=O)[C@@H]2CCCN2C(=O)[C@H](CC2CCC2)NC(=O)[C@H](Cc2ccc(O)cc2)NC1=O [BCY19691, Ac-(SEQ ID NO: 155)] (Ac-CY[Cba]PDYLC[dA]DEY[Pen]-NH2; linker 1-8-13 via TATA)"
3,16,"CC(=O)N[C@@H]1C(=O)N[C@@H](Cc2ccc(O)cc2)C(=O)N[C@@H](CC2CCC2)C(=O)N2CCC[C@H]2C(=O)N[C@@H](CC(=O)O)C(=O)N[C@@H](Cc2ccc(O)cc2)C(=O)N[C@@H](CC(C)C)C(=O)N[C@H]2CSCCC(=O)N3CN(CN(C3)C(=O)CCSC1(C)C)C(=O)CCSC[C@@H](C(N)=O)NC(=O)[C@H](Cc1ccc(O)cc1)NC(=O)[C@H](CCC(=O)O)NC(=O)[C@H](CC(=O)O)NC(=O)[C@@H](C)NC2=O [BCY19689, Ac-(SEQ ID NO: 153)] (Ac-[Pen]Y[Cba]PDYLC[dA]DEYC-NH2; linker 1-8-13 via TATA; C-terminus assumed)"
4,2750,"CSCC[C@@H]1NC(=O)[C@@H]2CSCCC(=O)N3CN(CN(C3)C(=O)CCSC[C@@H](C(=O)N[C@@H](C)C(N)=O)NC(=O)[C@H](C(C)C)NC(=O)[C@H](CCCCN)NC(=O)[C@H](C)NC(=O)[C@H]([C@@H](C)O)NC(=O)[C@H](CC(C)C)NC1=O)C(=O)CCSC[C@H](NC(=O)[C@H](C)N)C(=O)N[C@@H](CC(N)=O)C(=O)N[C@@H](CC(C)C)C(=O)N[C@@H](CCC(N)=O)C(=O)N[C@@H](C)C(=O)N1CCC[C@H]1C(=O)N2 [BCY18303, A-(SEQ ID NO: 67)-A] (H-ACNLQAPCMLTAKVCA-NH2; linker 2-8-15 via TATA)"
5,10,"CC(=O)N[C@H]1CSCCC(=O)N2CN3CN(C2)C(=O)CCSC[C@H](NC(=O)[C@H](CC(C)C)NC(=O)[C@H](Cc2ccc(O)cc2)NC(=O)[C@H](CC(=O)O)NC(=O)[C@@H]2CCCN2C(=O)[C@H](CC2CCC2)NC(=O)[C@H](Cc2ccc(O)cc2)NC1=O)C(=O)N[C@H](CC1CCCCC1)C(=O)N[C@@H](CC(=O)O)C(=O)N[C@@H](CCC(=O)O)C(=O)N[C@@H](Cc1ccc(O)cc1)C(=O)N[C@H](C(N)=O)CSCCC3=O [BCY19683, Ac-(SEQ ID NO: 147)] (Ac-CY[Cba]PDYLC[dCha]DEYC-NH2; linker 1-8-13 via TATA; C-terminus assumed)"
6,3760,"CC[C@H](C)[C@@H]1NC(=O)CNC(=O)[C@H](Cc2c[nH]c3ccccc23)NC(=O)[C@H](C(C)C)NC(=O)[C@@H]2CSCCC(=O)N3CN(CN(C3)C(=O)CCSC[C@@H](C(=O)N[C@@H](C)C(N)=O)NC1=O)C(=O)CCSC[C@H](NC(=O)[C@H](C)N)C(=O)N[C@@H](CC(=O)O)C(=O)N[C@@H](CC(C)C)C(=O)N[C@@H]([C@@H](C)O)C(=O)N[C@@H]([C@@H](C)O)C(=O)N[C@@H](Cc1c[nH]cn1)C(=O)N[C@@H](CC(N)=O)C(=O)N2 [BCY18285, A-(SEQ ID NO: 128)-A] (H-ACDLTTHNCVWGICA-NH2; linker 2-9-14 via TATA; N-terminus and C-terminus assumed)"
